Drawing on ChEMBL document CHEMBL4483862, “Open-source discovery of chemical leads for next-generation chemoprotective antimalarials” (2018), this text covers IC50 and IC90 for 35 molecules.

The test system of this test is Plasmodium berghei. In words: Luciferase/luciferin-expressing antifolate-resistant parasites were used to infect a culture of HepG2 cells that were pre-incubated with compounds. Infected hepatocytes emit light due to the luciferase reaction. Assay results are presented as the percent inhibition of light emission compared to control. […]. The class given is functional. The conditions noted are these: sporozoite; for IC90: read-out: LUCIFERASE INFECTION ASSAY - IC90.

Setting [1] is: read-out: LUCIFERASE INFECTION ASSAY - IC50.

For the molecule `N#C/C(=N\Nc1cc(C(F)(F)F)cc(C(F)(F)F)c1)S(=O)(=O)c1cccs1`, the IC90 (as a rule, the concentration at which the effect reaches the 90% level) came to 2 µM. Also, the IC50 (in general, the concentration at which inhibition is half-maximal) (FFLUC_HILL_SLOPE 43.6, FFLUC_R_SQUARED 0.536, HEPG2TOX_HILL_SLOPE 2.45, HEPG2TOX_R_SQUARED 0.984, PBLUC_HILL_SLOPE 3.51, PBLUC_R_SQUARED 0.744, read-out: LUCIFERASE INFECTION ASSAY - IC50) was 1.07 µM.
In the case of `O=C(Oc1ccc(Cl)cc1Sc1cc(Cl)ccc1OC(=O)c1cccs1)c1cccs1`, the IC90 is more than 6.5 µM. For the same molecule, the IC50 (FFLUC_HILL_SLOPE 35.2, FFLUC_R_SQUARED 0.259, read-out: LUCIFERASE INFECTION ASSAY - IC50) is more than 6.5 µM.
`Nc1nc(-c2ccc(OCc3ccc(F)cc3)cc2)cs1`: the 90% effect concentration (IC90) was more than 8.66 µM. Under setting [1], the IC50 is more than 8.66 µM.
For the molecule `O=C(Nc1cccc(Cl)c1)Nc1ccc2nc(-c3ccncc3)nn2c1`, the IC90 turned out to be 3.69 µM. In addition, the half-inhibitory concentration (IC50) (PBLUC_HILL_SLOPE 15.9, PBLUC_R_SQUARED 0.357, read-out: LUCIFERASE INFECTION ASSAY - IC50) is 3.21 µM.
For `CCOC(=O)c1c(N)sc(Cc2sc(N)c(C(=O)OCC)c2-c2ccccc2)c1-c1ccccc1`, the IC90 worked out at 5.92 µM. Moreover, the IC50 (FFLUC_HILL_SLOPE 10.1, FFLUC_R_SQUARED 0.631, HEPG2TOX_HILL_SLOPE 3.62, HEPG2TOX_R_SQUARED 0.944, PBLUC_HILL_SLOPE 88.7, PBLUC_R_SQUARED 0.482, read-out: LUCIFERASE INFECTION ASSAY - IC50) stood at 5.77 µM.
Turning to `Cc1ccc(C)c(Nc2sc(-c3cc(=O)oc4c(C)c(C)ccc34)c(N)c2-c2nc3ccccc3s2)c1`, the IC90 was found to be 9.38 µM. Besides, under “PBLUC_HILL_SLOPE 3.07, PBLUC_R_SQUARED 0.45, read-out: LUCIFERASE INFECTION ASSAY - IC50”, the half-inhibitory concentration (IC50) was found to be 4.59 µM.
On to `CC(=O)Nc1ccc(Oc2ccnc3cc(Cl)ccc23)cc1`, for which the IC90 is more than 10 µM. Also, the IC50 (PBLUC_HILL_SLOPE 1.43, PBLUC_R_SQUARED 0.691, read-out: LUCIFERASE INFECTION ASSAY - IC50) amounted to 3.48 µM.
In the case of `O=[N+]([O-])c1ccc(-c2nnc(SCc3c(Cl)cccc3Cl)s2)o1`, the IC90 is more than 8.5 µM. Besides, the IC50 (FFLUC_HILL_SLOPE 3.16, FFLUC_R_SQUARED 0.676, read-out: LUCIFERASE INFECTION ASSAY - IC50) was more than 8.5 µM.
As to `Cc1nc(-c2ccccn2)nc(NCc2ccccc2)c1Cl`, the IC90 amounted to 9.83 µM. Besides, for the setting “PBLUC_HILL_SLOPE 11, PBLUC_R_SQUARED 0.469, read-out: LUCIFERASE INFECTION ASSAY - IC50”, the 50% inhibitory concentration (IC50) was 8.06 µM.
For the molecule `Cc1cc(-c2nc(C)sc2CC(=O)O)c(C)s1`, the IC90 is more than 10 µM. Besides, the IC50 under setting [1] is more than 10 µM.
With `c1ccc(CNc2nn3c(-c4ccccc4)cnc3s2)cc1`, the IC90 was 4.14 µM. The IC50 (PBLUC_HILL_SLOPE 12.3, PBLUC_R_SQUARED 0.487, read-out: LUCIFERASE INFECTION ASSAY - IC50) stood at 3.47 µM.
Take `Cc1nc(NC(=O)CCc2c[nH]c3ccccc23)sc1-c1ccccn1`: the IC90 was 3.51 µM. Further, the IC50 (HEPG2TOX_HILL_SLOPE 2, HEPG2TOX_R_SQUARED 0.799, PBLUC_HILL_SLOPE 14.5, PBLUC_R_SQUARED 0.715, read-out: LUCIFERASE INFECTION ASSAY - IC50) stood at 3.02 µM.
As to `CCCNC(=O)c1c(NC(=O)c2ccc(C(F)(F)F)cc2)nc2ccccn12`, the IC90 came to 0.441 µM. Also, under “FFLUC_HILL_SLOPE 16.1, FFLUC_R_SQUARED 0.832, HEPG2TOX_HILL_SLOPE 0.765, HEPG2TOX_R_SQUARED 0.858, PBLUC_HILL_SLOPE 8.91, PBLUC_R_SQUARED 0.524, read-out: LUCIFERASE INFECTION ASSAY - IC50”, the IC50 is 0.344 µM.
Turning to `COc1ccc(C(=O)NNC(=O)c2nn(-c3ccccc3)cc2O)c(OC)c1OC`, the IC90 was determined as 2.77 µM. For the same molecule, the IC50 (HEPG2TOX_HILL_SLOPE 0.737, HEPG2TOX_R_SQUARED 0.981, PBLUC_HILL_SLOPE 4.06, PBLUC_R_SQUARED 0.568, read-out: LUCIFERASE INFECTION ASSAY - IC50) was 1.61 µM.
Consider `O=C(CNC(=O)c1ccc(Oc2ccccc2)cc1)Nc1nccs1`, for which the IC90 is more than 10 µM. The IC50 (PBLUC_HILL_SLOPE 15.5, PBLUC_R_SQUARED 0.469, read-out: LUCIFERASE INFECTION ASSAY - IC50) turned out to be 9.34 µM.
Turning to `CCCCNC(=O)c1c(NC(=O)c2cccc(OC)c2)nc2ccccn12`, the IC90 was 4.95 µM. Moreover, the IC50 (HEPG2TOX_HILL_SLOPE 2.8, HEPG2TOX_R_SQUARED 0.959, PBLUC_HILL_SLOPE 5.29, PBLUC_R_SQUARED 0.462, read-out: LUCIFERASE INFECTION ASSAY - IC50) amounted to 3.27 µM.
`OC12CC3CC(C1)CC(c1cc(-c4ccccc4Cl)c4cc(Cl)ccc4n1)(C3)C2`: the IC90 was more than 10 µM. In addition, the IC50 under setting [1] was more than 10 µM.
With `O=C(c1cnc(N2CCCC2)s1)c1sc2cc(Cl)cc(Cl)c2c1Cl`, the IC90 was more than 10 µM. In addition, for the setting “FFLUC_HILL_SLOPE 11, FFLUC_R_SQUARED 0.0847, HEPG2TOX_HILL_SLOPE 2.22, HEPG2TOX_R_SQUARED 0.924, PBLUC_HILL_SLOPE 1.87, PBLUC_R_SQUARED 0.226, read-out: LUCIFERASE INFECTION ASSAY - IC50”, the IC50 was 6.85 µM.
On to `CSc1sc(C(=O)NC(=O)Nc2ccccc2Cl)c2c1-c1nocc1CC2`, for which the IC90 was more than 7.86 µM. Moreover, the IC50 (HEPG2TOX_HILL_SLOPE 9.91, HEPG2TOX_R_SQUARED 0.105, read-out: LUCIFERASE INFECTION ASSAY - IC50) is more than 7.86 µM.
Turning to `COc1ccccc1NC(=O)C(=Cc1ccc(N2CCCC2)c([N+](=O)[O-])c1)C(=O)Nc1ccccc1OC`, the IC90 is more than 10 µM. Moreover, under setting [1], the IC50 was more than 10 µM.
Turning to `COc1ccc(OC)c(CCNc2nc3cnc(-c4cccc(NS(C)(=O)=O)c4)cc3n2C)c1`, the IC90 was more than 10 µM. The IC50 under setting [1] is more than 10 µM.
`CC(C)(C)NC(=S)Nc1ccc(C(F)(F)F)cc1[N+](=O)[O-]`: the IC90 was more than 10.3 µM. In addition, where the note is “PBLUC_HILL_SLOPE 10.5, PBLUC_R_SQUARED 0.215, read-out: LUCIFERASE INFECTION ASSAY - IC50”, the IC50 came to 9.08 µM.
`CCN(CC)c1ccc(/C=C(\C#N)C(=O)Nc2cccc(S(=O)(=O)N3CCCCC3)c2)cc1`: the IC90 was more than 10 µM. In addition, the IC50 (HEPG2TOX_HILL_SLOPE 7.51, HEPG2TOX_R_SQUARED 0.401, PBLUC_HILL_SLOPE 2.56, PBLUC_R_SQUARED 0.302, read-out: LUCIFERASE INFECTION ASSAY - IC50) came to 9.36 µM.
In the case of `O=C(N/N=C/c1c2ccccc2cc2ccccc12)c1ccc(Br)cc1`, the IC90 was more than 8.18 µM. Further, the IC50 under setting [1] was more than 8.18 µM.
For `Nc1c(C(=O)c2ccccc2)sc(Nc2ccccc2)c1C(=O)Nc1ccc(SC(F)F)cc1`, the IC90 came out at 1.28 µM. Under “HEPG2TOX_HILL_SLOPE 1.49, HEPG2TOX_R_SQUARED 0.921, PBLUC_HILL_SLOPE 11.4, PBLUC_R_SQUARED 0.694, read-out: LUCIFERASE INFECTION ASSAY - IC50”, the IC50 was determined as 1.05 µM.
For the molecule `O=C(Nc1sc2c(c1CN1CCN(C(=O)c3ccco3)CC1)CCCC2)c1ccccc1F`, the IC90 was more than 10 µM. The IC50 under setting [1] is more than 10 µM.
`CCn1nc(C(=O)N2CCN(c3ccccc3)CC2)c2c1CCN(Cc1cc(C)c(OC)cc1C)C2`: the IC90 was more than 6.77 µM. The IC50 (HEPG2TOX_HILL_SLOPE 2.53, HEPG2TOX_R_SQUARED 0.945, PBLUC_HILL_SLOPE 5.03, PBLUC_R_SQUARED 0.659, read-out: LUCIFERASE INFECTION ASSAY - IC50) was 4.44 µM.
In the case of `COc1cc(-c2cn3c(-c4ccc5ncccc5c4)cnc3cn2)ccc1O`, the IC90 was 4.57 µM. Besides, the IC50 (HEPG2TOX_HILL_SLOPE 2.88, HEPG2TOX_R_SQUARED 0.967, PBLUC_HILL_SLOPE 7.35, PBLUC_R_SQUARED 0.638, read-out: LUCIFERASE INFECTION ASSAY - IC50) was found to be 3.39 µM.
As to `COc1ccc(-c2cnc3cnc(-c4ccc(OC)nc4)cn23)cc1`, the IC90 turned out to be 8.79 µM. Besides, where the note is “HEPG2TOX_HILL_SLOPE 10.4, HEPG2TOX_R_SQUARED 0.778, PBLUC_HILL_SLOPE 1.98, PBLUC_R_SQUARED 0.81, read-out: LUCIFERASE INFECTION ASSAY - IC50”, the IC50 was 2.91 µM.
As to `Cc1ccccc1NC(=O)Nc1nc(C(N)COCc2ccccc2)cs1` (stereo not given), the IC90 was more than 8.63 µM. For the same molecule, the IC50 (HEPG2TOX_HILL_SLOPE 7.21, HEPG2TOX_R_SQUARED 0.623, PBLUC_HILL_SLOPE 21.4, PBLUC_R_SQUARED 0.0439, read-out: LUCIFERASE INFECTION ASSAY - IC50) turned out to be 7.8 µM.
As to `CN1C/C(=C\c2ccccc2Cl)C(=O)/C(=C/c2ccccc2Cl)C1`, the concentration for an effect of 90% (IC90) is 3.58 µM. Also, the IC50 (HEPG2TOX_HILL_SLOPE 12.3, HEPG2TOX_R_SQUARED 0.936, PBLUC_HILL_SLOPE 378, PBLUC_R_SQUARED 0.452, read-out: LUCIFERASE INFECTION ASSAY - IC50) came to 3.56 µM.
Regarding `C/C(=N\NC(=O)c1ccc(OCC(=O)N2C(C)CCCC2C)cc1)c1ccc2ccccc2c1O` (stereo not given), the IC90 is 3.9 µM. Further, for the setting “HEPG2TOX_HILL_SLOPE 2.27, HEPG2TOX_R_SQUARED 0.93, PBLUC_HILL_SLOPE 2.78, PBLUC_R_SQUARED 0.436, read-out: LUCIFERASE INFECTION ASSAY - IC50”, the IC50 worked out at 1.77 µM.
With `Oc1cccc(Nc2nc(N3CCCCC3)c3ccccc3n2)c1`, the IC90 was more than 10 µM. Also, the IC50 under setting [1] was more than 10 µM.
With `CCCOc1ccc2cc(C(=O)c3c(C)[nH]c(C)c3C(=O)OCC)oc2c1`, the IC90 was more than 10 µM. Moreover, the IC50 (HEPG2TOX_HILL_SLOPE 4.85, HEPG2TOX_R_SQUARED 0.69, PBLUC_HILL_SLOPE 11.9, PBLUC_R_SQUARED 0.276, read-out: LUCIFERASE INFECTION ASSAY - IC50) is 9.4 µM.
In the case of `N#Cc1cnc(S)nc1N`, the IC90 is more than 21.7 µM. For the same molecule, the IC50 under setting [1] is more than 21.7 µM.
